Laboratory results published in the supplement of paper PMC10307832.

Columns and labels:
Assay in all cases: relative viability (nuclei count vs DMSO), 5 days (fraction); higher = more cells survive
[1] = compound: CO[C@@H]1[C@H](N(C)C(=O)c2ccccc2)C[C@H]2O[C@]1(C)n1c3ccccc3c3c4c(c5c6ccccc6n2c5c31)C(=O)NC4 [Midostaurin] + CC(C)C[C@H](NC(=O)[C@H](Cc1ccccc1)NC(=O)c1cnccn1)B(O)O [Bortezomib] (partner 0.002 µM)
How it was run: (§1)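 After 5 days of treatment, lung cancer cells in 1536-well plates were fixed and stained in a single step (final 0.05% Triton X-100, 1% formaldehyde, 1 ug/ml Hoechst) and their nuclei counted on 4× images. Treatment had been applied by pin tool the day after seeding as one drug alone or as a fixed anchor-drug dose with five library-drug doses (not always all listed) in √10 steps. Relative viability is the nuclei count of treated wells divided by that of vehicle wells, and values are medians of duplicate plates.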

[2] = compound: CO[C@@H]1[C@H](N(C)C(=O)c2ccccc2)C[C@H]2O[C@]1(C)n1c3ccccc3c3c4c(c5c6ccccc6n2c5c31)C(=O)NC4 [Midostaurin] + CS(=O)(=O)CCNCc1ccc(-c2ccc3ncnc(Nc4ccc(OCc5cccc(F)c5)c(Cl)c4)c3c2)o1 [Lapatinib] (partner 2 µM)
How it was run: as §1

[3] = compound: CO[C@@H]1[C@H](N(C)C(=O)c2ccccc2)C[C@H]2O[C@]1(C)n1c3ccccc3c3c4c(c5c6ccccc6n2c5c31)C(=O)NC4 [Midostaurin] + C[C@]1(O)C[C@@H](c2nc(-c3ccc4ccc(-c5ccccc5)nc4c3)c3c(N)nccn32)C1 [Linsitinib] (partner 1 µM)
How it was run: as §1

[4] = compound: CO[C@@H]1[C@H](N(C)C(=O)c2ccccc2)C[C@H]2O[C@]1(C)n1c3ccccc3c3c4c(c5c6ccccc6n2c5c31)C(=O)NC4 [Midostaurin] + Cc1cc(Nc2cc(N3CCN(C)CC3)nc(Sc3ccc(NC(=O)C4CC4)cc3)n2)n[nH]1 [Tozasertib] (partner 0.1 µM)
How it was run: as §1

[5] = compound: CO[C@@H]1[C@H](N(C)C(=O)c2ccccc2)C[C@H]2O[C@]1(C)n1c3ccccc3c3c4c(c5c6ccccc6n2c5c31)C(=O)NC4 [Midostaurin] + O=C(c1cc(Cc2n[nH]c(=O)c3ccccc23)ccc1F)N1CCN(C(=O)C2CC2)CC1 [Olaparib] (partner 8 µM)
How it was run: as §1

| Cell Line | relative viability ([1]; first compound 0.01 µM) | relative viability ([1]; first compound 0.03162 µM) | relative viability ([1]; first compound 0.1 µM) | relative viability ([1]; first compound 0.3162 µM) | relative viability ([2]; first compound 0.01 µM) | relative viability ([2]; first compound 0.03162 µM) | relative viability ([2]; first compound 0.1 µM) | relative viability ([2]; first compound 0.3162 µM) | relative viability ([3]; first compound 0.01 µM) | relative viability ([3]; first compound 0.03162 µM) | relative viability ([3]; first compound 0.1 µM) | relative viability ([3]; first compound 0.3162 µM) | relative viability ([4]; first compound 0.01 µM) | relative viability ([4]; first compound 0.03162 µM) | relative viability ([4]; first compound 0.1 µM) | relative viability ([4]; first compound 0.3162 µM) | relative viability ([5]; first compound 0.01 µM) | relative viability ([5]; first compound 0.03162 µM) | relative viability ([5]; first compound 0.1 µM) | relative viability ([5]; first compound 0.3162 µM) |
| --- | --- | --- | --- | --- | --- | --- | --- | --- | --- | --- | --- | --- | --- | --- | --- | --- | --- | --- | --- | --- |
| NCI-H2009 | 0.882 | 0.981 | 0.942 | 0.809 | 0.811 | 0.823 | 0.902 | 0.861 | 1.2 | 1.05 | 1.06 | 1.19 | 0.711 | 0.707 | 0.563 | 0.426 | 0.696 | 0.668 | 0.611 | 0.512 |
| NCI-H2405 | 1.02 | 0.985 | 0.979 | 1.01 | 1.03 | 1.27 | – | 1.11 | 0.965 | 1.01 | – | 0.853 | 0.752 | 0.677 | 0.742 | 0.585 | 0.841 | 0.827 | 0.838 | 0.861 |
| NCI-H1755 | 0.914 | 0.912 | 0.887 | 0.755 | 1.03 | 0.976 | 0.903 | 0.917 | 0.97 | 0.923 | 0.865 | 0.692 | 0.521 | 0.614 | 0.535 | 0.547 | 0.864 | 0.884 | 0.783 | 0.779 |
| HCC-78 | 0.431 | 0.45 | 0.474 | 0.328 | 0.805 | 0.697 | 0.721 | 0.316 | 0.53 | 0.483 | 0.556 | 0.278 | 0.421 | 0.422 | 0.408 | 0.366 | 0.836 | 0.753 | 0.677 | 0.511 |
| LOU-NH91 | 0.506 | 0.48 | 0.529 | 0.528 | 0.736 | 0.736 | 0.811 | 0.924 | 1.05 | 0.885 | 0.958 | 0.953 | 0.722 | 0.608 | 0.653 | 0.642 | 0.922 | 0.828 | 0.88 | 0.943 |
| NCI-H3122 | 0.991 | 0.968 | 1.04 | 1.02 | 0.981 | 1.02 | 0.957 | 1.02 | 0.913 | 0.987 | 1.13 | 1.05 | 0.365 | 0.283 | 0.386 | 0.336 | 0.655 | 0.614 | 0.573 | 0.723 |
| HCC-827 | 0.984 | 0.951 | 0.992 | 1.07 | 0.198 | 0.225 | 0.204 | 0.225 | 0.928 | 0.883 | 0.852 | 1.06 | 0.407 | 0.352 | 0.4 | 0.416 | 0.582 | 0.628 | 0.589 | 0.654 |
